SMILES strings stand for the structures. A value given as a limit tells only on which side of the number the result lay.

Results on 7 molecules are retold here after ChEMBL document CHEMBL4480449, “Conolodinines A-D, Aspidosperma- Aspidosperma Bisindole Alkaloids with Antiproliferative Activity from Tabernaemontana corymbosa” (J Nat Prod, 2019).

Assay [1] deals with HT-29. Briefly: Cytotoxicity against human HT-29 cells after 72 hrs by MTT assay. It is filed as functional, cell-based. (Formazan colour is commonly taken as a measure of viable cells.)
A short description of assay [2]: Cytotoxicity against human KB/S cells after 72 hrs by MTT assay. It is filed as functional, cell-based.
Assay [3] concerns KB/VJ300. Briefly: Cytotoxicity against human KB/VJ300 cells after 72 hrs by MTT assay. It is filed as functional, cell-based.
The subject of assay [4] is HCT-116. Briefly: Cytotoxicity against human HCT116 cells after 72 hrs by MTT assay. As to conditions: HCT-116, 72 h. Type of assay: functional, cell-based.
The test system of assay [5] is MCF7. The assay is described as follows: Cytotoxicity against human MCF7 cells after 72 hrs by MTT assay. Type of assay: functional, cell-based.
Assay [6] deals with PC-3. The assay is described as follows: Cytotoxicity against human PC3 cells after 72 hrs by MTT assay. It is filed as functional, cell-based.
For assay [7], the system named is MDA-MB-231. Briefly: Cytotoxicity against human MDA-MB-231 cells after 72 hrs by MTT assay. Type of assay: functional, cell-based.
Assay [8] has as its system KB/VJ300. Briefly: Cytotoxicity against human KB/VJ300 cells after 72 hrs in presence of vincristine by MTT assay. It is filed as functional, cell-based.
Assay [9] deals with A549. The assay is described as follows: Cytotoxicity against human A549 cells after 72 hrs by MTT assay. Type of assay: functional, cell-based. The following applies: A549, 72 h.
Assay [10] relates to LNCaP. The assay is described as follows: Cytotoxicity against human LNCAP cells after 72 hrs by MTT assay. It is filed as functional, cell-based.
In assay [11] the test system is MRC5. The assay is described as follows: Cytotoxicity against human MRC5 cells after 72 hrs by MTT assay. Type of assay: cell-based. As to conditions: mrc5.

For orientation: IC50 means the point on the concentration scale where inhibition reaches its midpoint. With `CC[C@@]12CC(C(=O)OC)=C3Nc4cc5c(cc4[C@@]34CCN(C[C@H](O)[C@H]1O)[C@@H]24)[C@@H]1[C@H](O5)[C@@H](O)[C@@]2(CC)CC(C(=O)OC)=C3Nc4c(cc(O)c(OC)c4OC)[C@@]34CCN1[C@@H]24`, the half-inhibitory concentration (IC50) in assay [1] (Homo sapiens, HT-29, 72 h) is 1.7 µM; in [2] (Homo sapiens, 72 h), 0.7 µM; in assay [3] (Homo sapiens, KB/VJ300, 72 h) it was > 10 µM; in assay [4] it was 2.1 µM; in assay [5] (Homo sapiens, MCF7, 72 h), 1.2 µM; in assay [6] (Homo sapiens, PC-3, 72 h) it was 2.5 µM. The 50% inhibitory concentration (IC50) in assay [7] (Homo sapiens, MDA-MB-231, 72 h) is > 10 µM; in assay [8] (Homo sapiens, KB/VJ300, 72 h), > 10 µM; in [9], > 10 µM; in [10] (Homo sapiens, LNCaP, 72 h), 0.3 µM.
Turning to `CC[C@@]12CC(C(=O)OC)=C3N=C4C(=CC(=O)C(O)=C4OC)[C@@]34CCN([C@@H]3c5cc6c(cc5O[C@@H]3[C@H]1O)NC1=C(C(=O)OC)C[C@]3(CC)[C@@H]5O[C@@H]5CN5CC[C@@]16[C@@H]53)[C@H]42` (stereo in doubt; 8), the IC50 in [1] (ht-29) was found to be 1 µM; in assay [2], 0.01 µM; in assay [3] (kb/vj300), 2.9 µM; in assay [5] (mcf7) it was 0.7 µM; in assay [6] (pc-3), 0.5 µM; in assay [7] (mda-mb-231) it was 0.8 µM. Also, the half-maximal inhibitory concentration (IC50) in assay [8] (kb/vj300) was determined as 4.2 µM; in assay [11], 4 µM; in [10] (lncap) it was 1 µM.
For `CC[C@]12C=CCN3CC[C@]4(C(=C(C(=O)OC)C1)Nc1cc5c(cc14)[C@@H]1[C@H](O5)[C@@H](O)[C@@]4(CC)CC(C(=O)OC)=C5Nc6c(cc(O)c(OC)c6OC)[C@@]56CCN1[C@@H]46)[C@@H]32`, the 50% inhibitory concentration (IC50) in [2] (Homo sapiens, 72 h) is 1.5 µM; in [3] (Homo sapiens, KB/VJ300, 72 h), > 10 µM.
Turning to `CC[C@@]12CC(C(=O)OC)=C3Nc4cc5c(cc4[C@@]34CCN(C[C@H]3O[C@H]31)[C@@H]24)[C@@H]1[C@H](O5)[C@@H](O)[C@@]2(CC)CC(C(=O)OC)=C3Nc4c(cc(O)c(OC)c4OC)[C@@]34CCN1[C@@H]24` [CONOPHYLLINE], the half-inhibitory concentration (IC50) in [1] (Homo sapiens, HT-29, 72 h) is 3 µM; in [2] (Homo sapiens, 72 h), 0.03 µM; in assay [3] (Homo sapiens, KB/VJ300, 72 h), > 10 µM; in assay [4] it was 0.8 µM; in assay [5] (Homo sapiens, MCF7, 72 h) it was 2.1 µM; in assay [6] (Homo sapiens, PC-3, 72 h), 0.3 µM. For the same molecule, the half-maximal inhibitory concentration (IC50) in assay [7] (Homo sapiens, MDA-MB-231, 72 h) is 1.6 µM; in [8] (Homo sapiens, KB/VJ300, 72 h), 4.9 µM; in assay [9], 3.2 µM; in assay [10] (Homo sapiens, LNCaP, 72 h), > 10 µM.
Turning to `CC[C@]1(O)C[C@H]2CN(CCc3c([nH]c4ccccc34)[C@@](C(=O)OC)(c3cc4c(cc3OC)N(C=O)[C@H]3[C@@](O)(C(=O)OC)[C@H](OC(C)=O)[C@]5(CC)C=CCN6CC[C@]43[C@@H]65)C2)C1` [VINCRISTINE], the half-maximal inhibitory concentration (IC50) in assay [2] (Homo sapiens, 72 h) stood at 0.0004 µM; in [3] (Homo sapiens, KB/VJ300, 72 h) it was 2.6 µM.
Regarding `CC[C@@]12CC(C(=O)OC)=C3Nc4cc5c(cc4[C@@]34CCN(C[C@H]3O[C@H]31)[C@@H]24)[C@@H]1[C@H](O5)[C@@H](O)[C@@]2(CC)CC(C(=O)OC)=C3Nc4c(ccc(OC)c4O)[C@@]34CCN1[C@@H]24`, the half-maximal inhibitory concentration (IC50) in [1] (Homo sapiens, HT-29, 72 h) was 0.3 µM; in assay [2] (Homo sapiens, 72 h), 0.1 µM; in assay [3] (Homo sapiens, KB/VJ300, 72 h) it was > 10 µM; in assay [4] it was 1.1 µM; in assay [5] (Homo sapiens, MCF7, 72 h), 0.6 µM; in assay [6] (Homo sapiens, PC-3, 72 h), 7.9 µM. The IC50 in assay [7] (Homo sapiens, MDA-MB-231, 72 h) was 1.4 µM; in [8] (Homo sapiens, KB/VJ300, 72 h), 1.3 µM; in assay [9], > 10 µM; in assay [10] (Homo sapiens, LNCaP, 72 h), 9.6 µM.
In the case of `COc1ccc(CCN(C)CCCC(C#N)(c2ccc(OC)c(OC)c2)C(C)C)cc1OC` (centres undefined) [VERAPAMIL], the IC50 in assay [8] (Homo sapiens, KB/VJ300, 72 h) amounted to 0.8 µM.
